Results from patent US9861575B2, “Vitamin-containing nutrition infusion for administration through peripheral vein” (AJINOMOTO CO., INC., priority 2010, dated 2018).
Structures can show the parent of a compound that is named as a salt.

Key:
[1] = Test Example 6: stability of respective vitamins on storage of infusion formulation of Example 11; assay type: physicochemical; conditions: in infusion formulation of Example 11, percentage based on the mixed amount; for residual rate (content), storage for 1 month / residual rate (content), storage for 3 months: 40° C. and 75% RH
Text: In addition, the content is expressed as a percentage based on the mixed amount. From the results, it is considered that the infusion formulation of the present invention remains stable even when stored for a long time.

[2] = Test Example 7: stability of mixed solution of Example 11; assay type: physicochemical; conditions: mixed solution of Example 11, room temperature, light-shielded; value immediately after mixing = 100%
Description: Regarding the infusion formulations prepared in Example 11, the partition portions were opened to thoroughly mix the sugar solution with the amino acid solution at room temperature, and then the mixed solution was sampled after 0 hours, 24 hours, and 48 hours to measure the content of the respective vitamins and N-acetyl cysteine. In addition, the mixed solution was stored in a light-shielded environment. The value measured immediately after mixing was taken as 100%, and the content at each point in time of measurement is expressed as a percentage. All of the respective components remained stable until 48 hours elapsed after mixing.

Molecule	residual rate (content), storage for 1 month [1] [%]	residual rate (content), storage for 3 months [1] [%]	residual rate (content) immediately after sterilization [1] [%]	content after 24 hours [2] [%]	content after 48 hours [2] [%]
Cc1ncc(CO)c(CO)c1O.Cl [Vitamin B6, Pyridoxine hydrochloride]	96.7	97.3	97.1	100.6	99.9
NC(=O)c1cccnc1 [Nicotinamide]	101.5	99.6	100.9	96.6	97.2
O=C(O)CCCC[C@@H]1SC[C@@H]2NC(=O)N[C@@H]21 [Biotin]		91.4	93.6	97.9	96.7
Nc1nc2ncc(CNc3ccc(C(=O)N[C@@H](CCC(=O)O)C(=O)O)cc3)nc2c(=O)[nH]1 [Folic acid]	96.5	89.7	95.8	96.4	96.2
CC(=O)N[C@@H](CS)C(=O)O [N-acetyl cysteine]				98.3	97.5
O=C1O[C@H]([C@@H](O)CO)C(O)=C1O [Vitamin C, Ascorbic acid]	97.6	99.7	96.1	97.1	92.2
CC(C)(CO)[C@@H](O)C(=O)NCCCO [Panthenol]	97.6	96.8	97.8	100.0	100.2

Second part, the molecule after the results:

residual rate (content), storage for 1 month [1] [%]	residual rate (content), storage for 3 months [1] [%]	residual rate (content) immediately after sterilization [1] [%]	content after 24 hours [2] [%]	content after 48 hours [2] [%]	Molecule
89.7	91.2	86.3	96.0	97.9	Cyanocobalamin [Vitamin B12]
94.3	92.6	94.7		99.8	Cc1cc2nc3c(=O)[nH]c(=O)nc-3n(C[C@H](O)[C@H](O)[C@H](O)COP(=O)([O-])O)c2cc1C.[Na+] [Vitamin B2, Riboflavin sodium phosphate]
90.6	83.5	93.3	99.4	94.1	Cc1ncc(C[n+]2csc(CCO)c2C)c(N)n1 [Vitamin B1, Thiamine hydrochloride]
